Assay results reported in PubChem BioAssay AID1259408 (Genetic Toxicology Data Bank (GENE-TOX), 2018).
Calls of active or inactive are those of the source. How the calls were made is not given here.

Test system: GENE-TOX genotoxicity assays, various organisms and cells
Assay: GENE-TOX mutagenicity studies
[1] = Species/Cell Type: Escherichia coli polA (W3119 vs P3478), Assay Type: Rec-assay, DNA effects (bacterial DNA repair), Assay Code: RE1+, Evaluation Type: Evaluation A (Pre-1980)
[2] = Species/Cell Type: Human diploid fibroblasts, Assay Type: Unscheduled DNA synthesis (UDS) in vitro, DNA effects, Assay Code: UDH-, Evaluation Type: Evaluation A (Pre-1980)
[3] = Species/Cell Type: Human lymphocytes, Assay Type: Sister-chromatid exchange (SCE) in vitro, Assay Code: SCL+D, Dose Response: With dose response, Evaluation Type: Evaluation B (Post-1980)
[4] = Species/Cell Type: Human, Assay Type: Sister-chromatid exchange (SCE) in vitro, Assay Code: SC1+D, Dose Response: With dose response, Evaluation Type: Evaluation B (Post-1980)
[5] = Species/Cell Type: Saccharomyces cerevisiae, Assay Type: Mitotic recombination or gene conversion, Assay Code: YEH+, Evaluation Type: Evaluation A (Pre-1980)
[6] = Species/Cell Type: Salmonella typhimurium (one or more of the five standard strains: TA98, TA100, TA1535, TA1537, and TA1538), Assay Type: Histidine reverse gene mutation, Ames assay, Assay Code: SAL+, Evaluation Type: Evaluation A (Pre-1980)
[7] = Species/Cell Type: Salmonella typhimurium, Assay Type: Forward and reverse gene mutation, host-mediated assay, Assay Code: HMA-, Evaluation Type: Evaluation A (Pre-1980)
[8] = Species/Cell Type: Human lymphocytes, Assay Type: Sister-chromatid exchange (SCE) in vitro, Assay Code: SCLT, Evaluation Type: Evaluation B (Post-1980)
[9] = Species/Cell Type: Human, Assay Type: Sister-chromatid exchange (SCE) in vitro, Assay Code: SC1T, Evaluation Type: Evaluation B (Post-1980)
[10] = Species/Cell Type: Vicia faba, Assay Type: Chromosome aberrations, Assay Code: VIC+, Evaluation Type: Evaluation A (Pre-1980)

OCC1CO1 (centres undefined)
mutagenic call [1]: active; positive | mutagenic call [2]: inactive; negative | mutagenic call [3]: active; positive | mutagenic call [4]: active; positive | mutagenic call (Species/Cell Type: Neurospora crassa, Assay Type: Reverse gene mutation, Assay Code: NER+, Evaluation Type: Evaluation A (Pre-1980)): active; positive | mutagenic call [5]: active; positive | mutagenic call [6]: active; positive | mutagenic call (Species/Cell Type: Schizosaccharomyces pombe, Assay Type: Reverse gene mutation, Assay Code: YEZ+, Evaluation Type: Evaluation A (Pre-1980)): active; positive | mutagenic call (Species/Cell Type: Syrian hamster embryo (SHE) cells, Assay Type: Cell transformation, clonal assay, Assay Code: CTCT, Evaluation Type: Evaluation A (Pre-1980)): no conclusion

CCC1CCCCN1CCNc1ccc(CO)c2sc3ccccc3c(=O)c12 (centres undefined)
mutagenic call (Species/Cell Type: Mouse lymphoma (L5178Y) cells, Assay Type: Forward gene mutation at the thymidine kinase (TK) locus, chromosome aberrations, Assay Code: L51+, Evaluation Type: Evaluation A (Pre-1980)): active; positive

CCOS(=O)(=O)c1ccc(C)cc1
mutagenic call [1]: active; positive | mutagenic call (Species/Cell Type: Human diploid fibroblasts, Assay Type: Unscheduled DNA synthesis (UDS) in vitro, DNA effects, Assay Code: UDH+, Evaluation Type: Evaluation A (Pre-1980)): active; positive | mutagenic call [5]: active; positive | mutagenic call [6]: active; positive | mutagenic call [7]: inactive; negative | mutagenic call (Species/Cell Type: Syrian hamster embryo (SHE) cells, Assay Type: Cell transformation, clonal assay, Assay Code: CTC+, Evaluation Type: Evaluation A (Pre-1980)): active; positive

C=Cc1ccc(C)cc1
mutagenic call [3]: active; positive | mutagenic call [4]: active; positive

Cc1ccc([N+](=O)[O-])c(O)c1
mutagenic call (Species/Cell Type: Allium cepa, Assay Type: Chromosome aberrations, Assay Code: ALC+, Evaluation Type: Evaluation A (Pre-1980)): active; positive

O=NN1CCC(=O)NC1=O
mutagenic call [6]: active; positive

CN(C)C=O
mutagenic call (Species/Cell Type: Mammalian polychromatic erythrocytes, Assay Type: Micronucleus test, chromosome aberrations, Assay Code: MNTT, Evaluation Type: Evaluation A (Pre-1980)): no conclusion | mutagenic call (Species/Cell Type: Mouse, Sex: Male, Assay Type: Sperm morphology, Assay Code: SPI-, Evaluation Type: Evaluation A (Pre-1980)): inactive; negative | mutagenic call (Species/Cell Type: Nonhuman, Assay Type: Sister-chromatid exchange (SCE) in vitro, Assay Code: SC2+, Evaluation Type: Evaluation B (Post-1980)): active; positive | mutagenic call (Species/Cell Type: Rat primary hepatocytes, Assay Type: Unscheduled DNA synthesis (UDS) in vitro, DNA effects, Assay Code: UDP-, Evaluation Type: Evaluation A (Pre-1980)): inactive; negative | mutagenic call (Species/Cell Type: Syrian hamster embryo (SHE) cells, Assay Type: Cell transformation, clonal assay, Assay Code: CTC-, Evaluation Type: Evaluation A (Pre-1980)): inactive; negative

OCc1ccco1
mutagenic call [8]: no conclusion | mutagenic call [9]: no conclusion

OCSc1ncc[nH]1
mutagenic call (Species/Cell Type: Arabidopsis species, Assay Type: Gene mutation, Assay Code: ARM-, Evaluation Type: Evaluation A (Pre-1980)): inactive; negative

O=C1C(c2[nH]c3ccc(S(=O)(=O)O)cc3c2O)=Nc2ccc(S(=O)(=O)O)cc21
mutagenic call (Species/Cell Type: Bacillus subtilis (H17 vs M45), Assay Type: Rec-assay, spot test, DNA effects (bacterial DNA repair), Assay Code: REWT, Evaluation Type: Evaluation A (Pre-1980)): no conclusion | mutagenic call (Species/Cell Type: Bacillus subtilis (H17 vs M45T), Assay Type: Rec-assay, spot test, DNA effects (bacterial DNA repair), Assay Code: REXT, Evaluation Type: Evaluation A (Pre-1980)): no conclusion | mutagenic call (Species/Cell Type: Saccharomyces cerevisiae, Assay Type: Mitotic recombination or gene conversion, Assay Code: YEC-, Evaluation Type: Evaluation A (Pre-1980)): inactive; negative | mutagenic call (Species/Cell Type: Salmonella typhimurium (one or more of the five standard strains: TA98, TA100, TA1535, TA1537, and TA1538), Assay Type: Histidine reverse gene mutation, Ames assay, Assay Code: SAL-, Evaluation Type: Evaluation A (Pre-1980)): inactive; negative

CN(C)C(CSC(N)=O)CSC(N)=O
mutagenic call (Species/Cell Type: Mammalian polychromatic erythrocytes, Assay Type: Micronucleus test, chromosome aberrations, Assay Code: MNTT, Evaluation Type: Evaluation B (Post-1980)): no conclusion | mutagenic call (Species/Cell Type: Nonhuman bone marrow, Assay Type: Chromosome aberrations, in vivo, Assay Code: CY#-, Evaluation Type: Evaluation A (Pre-1980)): inactive; negative

CC(=O)N1CC1
mutagenic call [10]: active; positive

Nc1ccc2c(S(=O)(=O)O)cccc2c1S(=O)(=O)O
mutagenic call (Species/Cell Type: Salmonella typhimurium (one or more of the five standard strains: TA98, TA100, TA1535, TA1537, and TA1538), Assay Type: Histidine reverse gene mutation, Ames assay, Assay Code: SALT, Evaluation Type: Evaluation A (Pre-1980)): no conclusion

O=C1Nc2ccc([N+](=O)[O-])cc2C1=O
mutagenic call [6]: active; positive

Cc1cccc(O)c1C
mutagenic call [8]: no conclusion | mutagenic call [9]: no conclusion

CC1CN(/N=C/c2ccc([N+](=O)[O-])o2)C(=O)N1 (centres undefined)
mutagenic call [6]: active; positive

COc1ccc2nc3cc(Cl)ccc3c(NCCCNCCCl)c2n1
mutagenic call (Species/Cell Type: Chinese hamster ovary (CHO) cells, Assay Type: Forward gene mutation at the HPRT locus, Assay Code: CHO+D, Dose Response: With dose response, Evaluation Type: Evaluation A (Pre-1980)): active; positive

COc1ccc(N)c(OC)c1
call (Species/Cell Type: Nonhuman, Assay Type: In vivo carcinogenicity studies, Assay Code: CCG-, Evaluation Type: Evaluation A (Pre-1980)): inactive; negative

CC(=O)Nc1ccc2c(c1)Cc1cc(O)ccc1-2
mutagenic call (Species/Cell Type: Escherichia coli polA (W3110 vs P3478), Assay Type: Rec-assay, DNA effects (bacterial DNA repair), Assay Code: RE2+, Evaluation Type: Evaluation A (Pre-1980)): active; positive | mutagenic call (Species/Cell Type: Escherichia coli polA (W3119 vs P3478), Assay Type: Rec-assay, DNA effects (bacterial DNA repair), Assay Code: RE1T, Evaluation Type: Evaluation A (Pre-1980)): no conclusion | mutagenic call [2]: inactive; negative | mutagenic call (Species/Cell Type: Human, Assay Type: Sister-chromatid exchange (SCE) in vitro, Assay Code: SC1-, Evaluation Type: Evaluation B (Post-1980)): inactive; negative | mutagenic call (Species/Cell Type: Saccharomyces cerevisiae, Assay Type: Mitotic recombination or gene conversion, Assay Code: YEH-, Evaluation Type: Evaluation A (Pre-1980)): inactive; negative | mutagenic call (Species/Cell Type: Salmonella typhimurium (one or more of the five standard strains: TA98, TA100, TA1535, TA1537, and TA1538), Assay Type: Histidine reverse gene mutation, Ames assay, Assay Code: SAL+*, Activation: With metabolic activation, Evaluation Type: Evaluation A (Pre-1980)): active; positive | mutagenic call [7]: inactive; negative

O=C(O)c1ccccc1C(=O)Nc1cccc2ccccc12
mutagenic call (Species/Cell Type: Hordeum vulgare (barley), Assay Type: Chromosome aberrations, Assay Code: HOC+, Evaluation Type: Evaluation A (Pre-1980)): active; positive | mutagenic call [10]: active; positive

CS(=O)(=O)OCCNC(=O)N(CCCl)N=O
mutagenic call (Species/Cell Type: Drosophila melanogaster, Assay Type: Sex-linked recessive lethal gene mutation, Assay Code: SRL+, Evaluation Type: Evaluation A (Pre-1980)): active; positive | mutagenic call (Species/Cell Type: Saccharomyces cerevisiae, Assay Type: Mitotic recombination or gene conversion, Assay Code: YEC+, Evaluation Type: Evaluation A (Pre-1980)): active; positive

OCCc1ccccc1
mutagenic call [8]: no conclusion | mutagenic call [9]: no conclusion

CC(C)CC=O
mutagenic call (Species/Cell Type: Human lymphocytes, Assay Type: Sister-chromatid exchange (SCE) in vitro, Assay Code: SCL+, Evaluation Type: Evaluation B (Post-1980)): active; positive | mutagenic call (Species/Cell Type: Human, Assay Type: Sister-chromatid exchange (SCE) in vitro, Assay Code: SC1+, Evaluation Type: Evaluation B (Post-1980)): active; positive

COC(=O)COc1ccc(Br)cc1CCl (tested in a mixture with another compound)
mutagenic call (Species/Cell Type: Saccharomyces cerevisiae, Assay Type: Reverse gene mutation, Assay Code: YER+, Evaluation Type: Evaluation A (Pre-1980)): active; positive

C[C@H](N)C(=O)c1ccccc1
mutagenic call (Species/Cell Type: Mammalian polychromatic erythrocytes, Assay Type: Micronucleus test, chromosome aberrations, Assay Code: MNT+, Evaluation Type: Evaluation B (Post-1980)): active; positive
